Data published in the supplement of paper PMC10307832.

How the values were obtained:
Test in all cases: relative viability (nuclei count vs DMSO), 5 days (fraction); higher = more cells survive
[1] = compound: CN1CCC(CC1)OC2=CC(=C(C=C2)NC3=NC=C4C(=N3)N(C(=O)N4C)C5CCCC5)OC [AZ3146] + Cc1nc(Nc2ncc(C(=O)Nc3c(C)cccc3Cl)s2)cc(N2CCN(CCO)CC2)n1 [Dasatinib] (partner 0.075 µM)
Procedure, shortened: (§1)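 Lung cancer cell lines were pin-tool dosed in 1536-well plates on the day after seeding, with either a lone drug or a fixed anchor-drug dose plus five library-drug doses (not always all listed) in √10 steps. Nuclei were counted on 4× images after 5 days. Relative viability is the ratio of treated-well to vehicle-well nuclei counts, with each value a median of duplicate plates.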

[2] = compound: CCOC(=O)CCNc1cc(N2CCc3ccccc3CC2)nc(-c2ccccn2)n1 [GSK-J4] + O=C(c1cc(Cc2n[nH]c(=O)c3ccccc23)ccc1F)N1CCN(C(=O)C2CC2)CC1 [Olaparib] (partner 8 µM)
Procedure, shortened: as §1

[3] = compound: CCOC(=O)CCNc1cc(N2CCc3ccccc3CC2)nc(-c2ccccn2)n1 [GSK-J4] + CS(=O)(=O)N1CCN(Cc2cc3nc(-c4cccc5[nH]ncc45)nc(N4CCOCC4)c3s2)CC1 [Pictilisib] (partner 1 µM)
Procedure, shortened: as §1

[4] = compound: CCOC(=O)CCNc1cc(N2CCc3ccccc3CC2)nc(-c2ccccn2)n1 [GSK-J4] + CC(C)C[C@H](NC(=O)[C@H](Cc1ccccc1)NC(=O)c1cnccn1)B(O)O [Bortezomib] (partner 0.002 µM)
Procedure, shortened: as §1

Row | Cell Line | relative viability ([1]; first compound 0.08 µM) | relative viability ([1]; first compound 0.253 µM) | relative viability ([1]; first compound 0.8 µM) | relative viability ([1]; first compound 2.53 µM) | relative viability ([1]; first compound 8 µM) | relative viability ([2]; first compound 0.5 µM) | relative viability ([2]; first compound 1.581 µM) | relative viability ([2]; first compound 5 µM) | relative viability ([2]; first compound 15.81 µM) | relative viability ([2]; first compound 50 µM) | relative viability ([3]; first compound 0.5 µM) | relative viability ([3]; first compound 1.581 µM) | relative viability ([3]; first compound 5 µM) | relative viability ([3]; first compound 15.81 µM) | relative viability ([3]; first compound 50 µM) | relative viability ([4]; first compound 0.5 µM) | relative viability ([4]; first compound 1.581 µM) | relative viability ([4]; first compound 5 µM) | relative viability ([4]; first compound 15.81 µM) | relative viability ([4]; first compound 50 µM)
1 | LCLC-103H | 0.532 | 0.354 | 0.472 | 0.551 | 0.422 | 0.8 | 0.685 | 0.776 | 0.654 | 0.646 | 0.704 | 0.6 | 0.542 | 0.691 | 0.627 | 1.05 | 0.96 | 1.02 | 0.899 | 1.07
2 | LOU-NH91 | 0.581 | 0.485 | 0.632 | 0.602 | 0.566 | 0.932 | 0.859 | 0.691 | 0.872 | 0.802 | 0.596 | 0.508 | 0.542 | 0.532 | 0.518 | 0.525 | 0.497 | 0.426 | 0.467 | 0.621
3 | LU99A | 0.645 | 0.528 | 0.464 | 0.56 | 0.606 | 0.248 | 0.265 |  | 0.207 | 0.205 | 0.277 | 0.276 | 0.292 | 0.346 | 0.219 | 1.07 | 0.777 | 0.777 | 1.21 | 0.632
4 | LXF-289 | 0.276 | 0.241 | 0.172 | 0.227 | 0.18 | 1.03 | 1.01 | 1.14 | 0.991 | 0.891 | 0.761 | 0.655 | 0.691 | 0.754 | 0.562 | 0.952 | 0.866 | 1 | 0.994 | 1.02
5 | NCI-H23 | 0.894 | 0.767 | 0.612 | 0.756 | 0.97 | 0.25 | 0.299 | 0.292 | 0.344 | 0.285 | 0.535 |  | 0.545 | 0.49 | 0.319 | 0.987 |  | 0.791 | 1.03 | 0.969
6 | NCI-H322M | 0.236 | 0.248 | 0.24 | 0.251 | 0.285 | 0.829 | 0.729 | 0.935 | 0.782 | 0.658 | 0.544 | 0.574 | 0.7 | 0.538 | 0.465 | 1.3 | 1.03 | 1.67 | 1.11 | 1.02
7 | NCI-H441 | 0.636 | 0.68 | 0.922 | 0.497 | 0.536 | 0.605 | 0.487 | 0.406 | 0.515 | 0.422 | 0.427 | 0.458 | 0.571 | 0.506 | 0.403 | 0.749 | 0.497 | 0.401 | 0.538 | 0.348
8 | NCI-H460 | 0.463 | 0.485 | 0.484 | 0.463 | 0.476 | 0.384 |  |  | 0.433 | 0.343 | 0.43 | 0.457 | 0.519 | 0.343 | 0.217 | 1.02 | 0.888 | 1 | 1.04 | 0.985
9 | NCI-H520 | 0.166 | 0.171 | 0.197 | 0.592 | 0.19 | 0.32 | 0.278 | 0.354 | 0.332 | 0.29 | 0.269 | 0.236 | 0.303 | 0.275 | 0.414 | 0.553 | 0.316 | 0.299 | 0.509 | 0.556
10 | NCI-H596 | 0.56 | 0.582 | 0.581 | 0.636 | 0.538 | 0.668 | 0.726 | 0.734 | 0.738 | 0.586 | 0.417 | 0.428 | 0.365 | 0.431 | 0.369 | 0.999 | 0.945 | 0.99 | 0.976 | 1
11 | NCI-H647 | 0.214 | 0.186 | 0.178 | 0.216 | 0.138 | 0.456 | 0.471 | 0.545 | 0.5 | 0.374 | 0.576 | 0.479 | 0.272 | 0.426 | 0.353 | 0.912 | 0.862 | 0.652 | 1.12 | 0.982
12 | NCI-H650 | 0.351 | 0.428 | 0.435 | 0.482 | 0.491 | 0.356 | 0.371 |  | 0.272 | 0.296 | 0.839 | 0.798 | 0.789 | 0.779 | 0.468 | 0.76 | 0.525 | 0.495 | 0.663 | 0.663
13 | NCI-H661 | 0.867 | 0.859 | 0.927 | 0.765 | 0.459 | 0.704 | 0.67 | 0.7 | 0.559 | 0.461 | 0.484 | 0.463 | 0.331 | 0.339 | 0.342 | 0.896 | 0.852 | 0.791 | 0.589 | 0.583
14 | NCI-H727 | 0.418 | 0.378 | 0.324 | 0.362 | 0.384 | 0.597 | 0.596 | 0.581 | 0.718 | 0.472 | 0.379 |  | 0.691 | 0.427 | 0.18 | 0.934 |  | 1.19 | 0.954 | 0.35
15 | NCI-H838 | 0.408 | 0.303 | 0.269 | 0.331 | 0.269 | 0.696 | 0.653 | 0.514 | 0.568 | 0.411 | 0.624 | 0.407 |  | 0.467 | 0.433 | 0.978 | 0.483 |  | 0.769 | 0.792
16 | NCI-H1355 | 0.654 | 0.644 | 0.767 | 0.68 | 0.726 | 0.732 | 0.672 | 0.762 | 0.677 | 0.503 | 0.521 | 0.302 | 0.397 | 0.418 | 0.478 | 1.23 | 1.04 | 1.11 | 1.16 | 1.16
17 | NCI-H1437 | 0.327 | 0.373 | 0.447 | 0.368 | 0.51 | 0.587 | 0.596 | 0.601 | 0.609 | 0.301 | 0.454 | 0.352 | 0.385 | 0.435 | 0.165 | 0.537 | 0.328 | 0.435 | 0.504 | 0.209
